The structures appear in SMILES notation.

The target in this experiment is T1, hCRTH2 receptor (Homo sapiens, UniProt Q9Y5Y4).
T1 construct: expressed in transfected cells; host or cells: HEK293
T1 sequence (Q9Y5Y4 1-395): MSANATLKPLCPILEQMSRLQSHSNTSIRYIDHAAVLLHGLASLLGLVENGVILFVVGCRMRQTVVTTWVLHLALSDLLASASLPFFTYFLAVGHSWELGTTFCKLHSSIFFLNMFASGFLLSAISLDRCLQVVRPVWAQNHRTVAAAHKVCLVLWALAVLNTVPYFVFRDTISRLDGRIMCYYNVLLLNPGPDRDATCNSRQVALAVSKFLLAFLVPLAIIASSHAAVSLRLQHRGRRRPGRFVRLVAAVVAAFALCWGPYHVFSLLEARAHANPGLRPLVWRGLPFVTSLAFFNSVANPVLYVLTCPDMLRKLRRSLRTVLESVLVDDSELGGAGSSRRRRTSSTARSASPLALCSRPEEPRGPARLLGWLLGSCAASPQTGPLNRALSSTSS
Briefly: Radioligand displacement assay (3H-PGD2) on hCRTH2 receptor membranes. It is filed as binding. The settings on record: antagonistic activity; 3H-PGD2 displacement on HEK293-hCRTH2 membrane fragments. On the procedure:
First, recombinant HEK293-hCRTH2 cells were detached from culture plates into 5 ml buffer A/plate (Buffer A: 5 mM Tris, 1 mM MgCl2-6H2O pH=7.4) using a rubber policeman. Cells were then transferred into centrifugation tubes and centrifuged for 5 min at 400 g. The cell pellet was resuspended in the same buffer and tubes were frozen at −80° C. Cells were thawed and membrane fragments were generated by homogenization using a polytron homogenizer (30 seconds). The membrane fragments were then centrifuged at 3000 g for 20 minutes and resuspended in buffer C (Buffer C: 75 mM Tris, 25 mM MgCl2, 250 mM Saccharose pH 7.4). Aliquots of membrane fragments were stored at −20° C.
Binding assay was performed in a final assay volume of 250 μl. First, 25 μl of test compound, previously diluted in Binding-Buffer (Binding-Buffer: 50 mM Tris-Base, 100 mM NaCl, 1 mM EDTA, 0.1% BSA (protease free), 0.01% NaN3, 10 mM MnCl2, pH 7.0) was placed into each well. After addition of 75 μl Binding-Buffer, 50 μl of the radioligand ^3H-PGD2 (at 2.5 nM (220.000 dpm/well) from ANAWA ART0662) was added to each well. Binding assay was started by addition of 100 μl CRTH2 membrane fragments, reaching a final concentration of 20 μg/well. For non-specific binding, PGD2 was added to the reaction mixture to […] final concentration.
This assay mix was incubated for 90 minutes at room temperature and then filtered through a GF/C filter 96-well plate which was pre-soaked for 3 hours in 0.5% polyethyleneimine (PEI). The filter-wells were washed three times with ice cold Binding-Buffer. Then, 40 μl of Microscint-40 (Packard) was added to each well and the retained radioactivity quantified in a Topcount (Packard).

`COc1ccc2c(c1)C(c1cc(F)ccc1OCC(=O)O)N(C(=O)OCc1ccccc1)CC2` (racemic) [Example 37, (±)-1-(2-Carboxymethoxy-5-fluoro-phenyl)-7-methoxy-3,4-dihydro-1H-isoquinoline-2-carboxylic acid benzyl ester]: the concentration for half-maximal inhibition (IC50) – broadly, the concentration that inhibits the measured activity by half – is 19.9 nM.

`O=C(O)COc1ccc(F)cc1C1c2cccc(Cl)c2CCN1C(=O)OCc1ccccc1` (racemic) [Example 38, (±)-1-(2-Carboxymethoxy-5-fluoro-phenyl)-5-chloro-3,4-dihydro-1H-isoquinoline-2-carboxylic acid benzyl ester] had an IC50 of 20.8 nM.

Take `Cc1cccc2c1CCN(C(=O)OCc1ccccc1)C2c1cc(F)ccc1OCC(=O)O` (racemic) [Example 39, (±)-1-(2-Carboxymethoxy-5-fluoro-phenyl)-5-methyl-3,4-dihydro-1H-isoquinoline-2-carboxylic acid benzyl ester]: the IC50 came out at 22.2 nM.

With `O=C(O)COc1ccc(F)cc1C1c2ccc(F)c(Br)c2CCN1C(=O)OCc1ccccc1` (racemic) [Example 40, (±)-5-Bromo-1-(2-carboxymethoxy-5-fluoro-phenyl)-6-fluoro-3,4-dihydro-1H-isoquinoline-2-carboxylic acid benzyl ester], the 50% inhibitory concentration (IC50) was determined as 23 nM.

Take `O=C(O)COc1ccc(F)cc1C1c2cc(F)ccc2CCN1C(=O)OCc1ccccc1` (racemic) [Example 41, (±)-1-(2-Carboxymethoxy-5-fluoro-phenyl)-7-fluoro-3,4-dihydro-1H-isoquinoline-2-carboxylic acid benzyl ester]: the IC50 is 24.8 nM.

For the compound `O=C(O)COc1ccc(F)cc1C1c2cc(F)cc(F)c2CCN1C(=O)OCc1ccccc1` (racemic) [Example 42, (±)-1-(2-Carboxymethoxy-5-fluoro-phenyl)-5,7-difluoro-3,4-dihydro-1H-isoquinoline-2-carboxylic acid benzyl ester], the IC50 turned out to be 6.84 nM. Against the preceding compound, the IC50 is about 3.6-fold lower.

As for `O=C(O)COc1ccc(Cl)cc1C1c2cc(F)cc(F)c2CCN1C(=O)OCc1ccccc1` (racemic) [Example 43, (±)-1-(2-Carboxymethoxy-5-chloro-phenyl)-5,7-difluoro-3,4-dihydro-1H-isoquinoline-2-carboxylic acid benzyl ester], the concentration for half-maximal inhibition (IC50) was determined as 4.94 nM. This IC50 and that of the compound before are within 1.5-fold of each other.

Regarding `N#Cc1ccc(OCC(=O)O)c(C2c3cc(F)cc(F)c3CCN2C(=O)OCc2ccccc2)c1` (racemic) [Example 44, (±)-1-(2-Carboxymethoxy-5-cyano-phenyl)-5,7-difluoro-3,4-dihydro-1H-isoquinoline-2-carboxylic acid benzyl ester], the IC50 came to 8.34 nM.

Regarding `O=C(O)COc1ccc(F)cc1C1c2ccccc2CCN1C(=O)Cc1noc2ccccc12` (racemic) [Example 45, (±)-{2-[2-(2-Benzo[d]isoxazol-3-yl-acetyl)-1,2,3,4-tetrahydro-isoquinolin-1-yl]-4-fluoro-phenoxy}-acetic acid], the IC50 stood at 369 nM.

With `CC(C)(CC(=O)N1CCc2ccccc2C1c1cc(F)ccc1OCC(=O)O)c1ccccc1` (racemic) [Example 46, (±)-{4-Fluoro-2-[2-(3-methyl-3-phenyl-butyryl)-1,2,3,4-tetrahydro-isoquinolin-1-yl]-phenoxy}-acetic acid], the IC50 came to 916 nM. This IC50 lies about 2.5-fold higher than the previous one.

For the compound `O=C(O)COc1ccc(F)cc1C1c2ccccc2CCN1C(=O)Cc1cccc2ccccc12` (racemic) [Example 47, (±)-{4-Fluoro-2-[2-(2-naphthalen-1-yl-acetyl)-1,2,3,4-tetrahydro-isoquinolin-1-yl]-phenoxy}-acetic acid], the IC50 was 198 nM.

Compound `O=C(O)COc1ccc(F)cc1C1c2ccccc2CCN1C(=O)Cc1ccc2cccnc2c1` (racemic) [Example 48, (±)-{4-Fluoro-2-[2-(2-quinolin-7-yl-acetyl)-1,2,3,4-tetrahydro-isoquinolin-1-yl]-phenoxy}-acetic acid] returned an IC50 of 287 nM.

As for `O=C(O)COc1ccc(F)cc1C1c2ccccc2CCN1C(=O)Cc1ccc2ncccc2c1` (racemic) [Example 49, (±)-{4-Fluoro-2-[2-(2-quinolin-6-yl-acetyl)-1,2,3,4-tetrahydro-isoquinolin-1-yl]-phenoxy}-acetic acid], the IC50 was 35.7 nM.

`O=C(O)COc1ccc(F)cc1C1c2ccccc2CCN1C(=O)Cc1ccc2c(c1)OCCO2` (racemic) [Example 50] displayed an IC50 of 182 nM.

`O=C(O)COc1ccc(F)cc1C1c2ccccc2CCN1C(=O)CCc1c[nH]c2ccccc12` (racemic) [Example 51, (±)-{4-Fluoro-2-[2-(3-1H-indol-3-yl-propionyl)-1,2,3,4-tetrahydro-isoquinolin-1-yl]-phenoxy}-acetic acid] had an IC50 of 30.1 nM.

`CCn1c(C)c(CCC(=O)N2CCc3ccccc3C2c2cc(F)ccc2OCC(=O)O)c2ccccc21` (racemic) [Example 52, (±)-(2-{2-[3-(1-Ethyl-2-methyl-1H-indol-3-yl)-propionyl]-1,2,3,4-tetrahydro-isoquinolin-1-yl}-4-fluoro-phenoxy)-acetic acid] displayed an IC50 of 600 nM.

On to `O=C(O)COc1ccc(F)cc1C1c2ccccc2CCN1C(=O)CCc1c(Cl)cccc1Cl` (racemic) [Example 53, (±)-(2-{2-[3-(2,6-Dichloro-phenyl)-propionyl]-1,2,3,4-tetrahydro-isoquinolin-1-yl}-4-fluoro-phenoxy)-acetic acid], for which the IC50 came to 877 nM.

For `O=C(O)COc1ccc(F)cc1C1c2ccccc2CCN1C(=O)CCOc1ccccc1F` (racemic) [Example 54], the IC50 was 32.2 nM.

`Cc1nnnn1-c1ccc(CC(=O)N2CCc3ccccc3C2c2cc(F)ccc2OCC(=O)O)cc1` (racemic) [Example 55, (±)-[4-Fluoro-2-(2-{2-[4-(5-methyl-tetrazol-1-yl)-phenyl]-acetyl}-1,2,3,4-tetrahydro-isoquinolin-1-yl)-phenoxy]-acetic acid] registered an IC50 of 800 nM.

`O=C(O)COc1ccc(F)cc1C1c2ccccc2CCN1C(=O)CCN1C(=O)COc2ccc(Cl)cc21` (racemic) [Example 56, (±)-(2-{2-[3-(6-Chloro-3-oxo-2,3-dihydro-benzo[1,4]oxazin-4-yl)-propionyl]-1,2,3,4-tetrahydro-isoquinolin-1-yl}-4-fluoro-phenoxy)-acetic acid]: the IC50 worked out at 735 nM.

The compound `Cc1nc(CC(=O)N2CCc3ccccc3C2c2cc(F)ccc2OCC(=O)O)cs1` (racemic) [Example 57, (±)-(4-Fluoro-2-{2-[2-(2-methyl-thiazol-4-yl)-acetyl]-1,2,3,4-tetrahydro-isoquinolin-1-yl}-phenoxy)-acetic acid] gave an IC50 of 730 nM. This IC50 and that of the compound before are within 1.5-fold of each other.

Take `O=C(O)COc1ccc(F)cc1C1c2ccccc2CCN1C(=O)Cc1csc2ccccc12` (racemic) [Example 58, (±)-{2-[2-(2-Benzo[b]thiophen-3-yl-acetyl)-1,2,3,4-tetrahydro-isoquinolin-1-yl]-4-fluoro-phenoxy}-acetic acid]: the IC50 was 123 nM.

Turning to `O=C(O)COc1ccc(F)cc1C1c2ccccc2CCN1C(=O)CCc1nc2ccccc2s1` (racemic) [Example 59, (±)-{2-[2-(3-Benzothiazol-2-yl-propionyl)-1,2,3,4-tetrahydro-isoquinolin-1-yl]-4-fluoro-phenoxy}-acetic acid], the IC50 was found to be 794 nM.

Turning to `O=C(O)COc1ccc(F)cc1C1c2ccccc2CCN1C(=O)Cc1ccc(-c2ccccc2)cc1` (racemic) [Example 60], the IC50 was found to be 577 nM.

Regarding `O=C(O)COc1ccc(F)cc1C1c2ccccc2CCN1C(=O)Cn1ccc2ccccc21` (racemic) [Example 61, (±)-{4-Fluoro-2-[2-(2-indol-1-yl-acetyl)-1,2,3,4-tetrahydro-isoquinolin-1-yl]-phenoxy}-acetic acid], the IC50 worked out at 846 nM.

Turning to `O=C(O)COc1ccc(F)cc1C1c2ccccc2CCN1C(=O)Cc1nc2ccccc2[nH]1` (racemic) [Example 62], the IC50 turned out to be 794 nM.

In turn, `O=C(O)COc1ccc(F)cc1C1c2ccccc2CCN1C(=O)CN1Cc2ccccc2C1` (racemic) [Example 63, (±)-{2-[2-(2-1,3-Dihydro-isoindol-2-yl-acetyl)-1,2,3,4-tetrahydro-isoquinolin-1-yl]-4-fluoro-phenoxy}-acetic acid] gave an IC50 of 871 nM.

`COc1ccc2[nH]cc(CCC(=O)N3CCc4ccccc4C3c3cc(F)ccc3OCC(=O)O)c2c1` (racemic) [Example 64, (±)-(4-Fluoro-2-{2-[3-(5-methoxy-1H-indol-3-yl)-propionyl]-1,2,3,4-tetrahydro-isoquinolin-1-yl}-phenoxy)-acetic acid] came in with an IC50 of 49.7 nM.

These data come from patent US8575158B2, “1-phenyl-substituted heterocyclyl derivatives and their use as prostaglandin D2 receptor modulators” (Actelion Pharmaceuticals Ltd., priority 2010, dated 2013).
